According to patent publication US6184238A, “N-hydroxyurea derivative and pharmaceutical composition containing the same” (Nikken Chemicals Co., Ltd., priority 1996, dated 2001):
Read-outs that look alike come from different tables or passages of the source.

Assays:
[1] = test system: Antigen-Induced Bronchoconstriction Model of Guinea Pig; test: Antigen-induced bronchoconstriction model of guinea pig (Konzett-Rossler method); type: in vivo; settings: Cavia porcellus, 1 h; guinea pigs sensitized by ovalbumin; oral; one hour after administration; read-out: Suppression of respiratory constriction (ED50)
Experimental: (Pharmacological Activity on Antigen-Induced Bronchoconstriction Model of Guinea Pig)
Guinea pigs sensitized by ovalbumin were used and orally administered with the test compound suspended in 5% gum arabic. The activity for inhibiting antigen-induced bronchoconstriction after one hour after administration was measured by the Konzett-Rossler method.
Each of the sensitized guinea pigs was anesthesized by 35 mg/kg pentobarbital, a cannula was inserted into the respiratory tract and connected to an artificial respirator, a cannula was inserted into the jugular vein, and treatment was performed by 5 mg/kg suxamethonium and […] mepyramine. Next, the guinea pig was inhaled a nebulized ovalbumin to cause bronchoconstriction and the activity in inhibiting bronchoconstriction was found from the ratio of the amount of overflow volume to the detector to the amount of air blown volume from the artificial respirator.
As the test compound, the Compounds 19, 26, and 33 were used. As the control, the thromboxane synthase inhibitor OKY-046 and the 5-lipoxygenaseinhibitor A-64077 were used.

Lipoxygenase = molecular target: T1, Lipoxygenase (Rattus norvegicus, UniProt P12527); test: Lipoxygenase inhibitory activity (leukotriene B4 production, rat polymorphonuclear leukocytes); type: cell-based
T1 construct: Using rat polymorphonuclear leukocytes; endogenous in cells; host or cells: casein-elicited peritoneal polymorphonuclear leukocytes of male Wistar rats
T1 sequence (P12527 1-673): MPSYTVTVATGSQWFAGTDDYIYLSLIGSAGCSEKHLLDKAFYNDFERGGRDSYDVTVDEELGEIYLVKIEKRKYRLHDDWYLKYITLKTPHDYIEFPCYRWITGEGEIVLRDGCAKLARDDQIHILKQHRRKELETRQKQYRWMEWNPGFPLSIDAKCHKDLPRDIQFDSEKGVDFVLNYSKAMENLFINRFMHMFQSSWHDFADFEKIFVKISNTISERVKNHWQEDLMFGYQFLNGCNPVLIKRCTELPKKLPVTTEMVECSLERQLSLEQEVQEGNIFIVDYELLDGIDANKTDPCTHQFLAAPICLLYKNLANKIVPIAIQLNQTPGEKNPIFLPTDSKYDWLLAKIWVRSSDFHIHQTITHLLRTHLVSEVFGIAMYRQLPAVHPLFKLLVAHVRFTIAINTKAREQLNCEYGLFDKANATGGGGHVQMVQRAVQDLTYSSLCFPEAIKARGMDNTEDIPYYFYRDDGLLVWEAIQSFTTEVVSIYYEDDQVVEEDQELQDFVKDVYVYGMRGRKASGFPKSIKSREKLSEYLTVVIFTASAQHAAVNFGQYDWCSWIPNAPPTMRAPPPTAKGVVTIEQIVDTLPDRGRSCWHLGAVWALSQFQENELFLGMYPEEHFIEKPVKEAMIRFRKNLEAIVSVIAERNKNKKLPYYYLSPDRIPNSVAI
Experimental: (Test of Lipoxygenase Inhibitory Activity)
Using rat polymorphonuclear leukocytes, a test was conducted using as an indicator the amount of production of leukotriene B4. Wistar male rats (Japan Clea) were intraperitoneally administered with 12% sodium casein. After 16 hours, the peritoneal cavities were lavaged and the polymorphonuclear leukocytes were recovered. The polymorphonuclear leukocytes thus obtained were suspended in a phosphate buffer (137 mM NaCl, 3 mM KCl, 8 mM Na2 HPO4, 2 mM KH2 PO4) (2.5×10^5 cells/0.4 ml), then the test compound (final concentration 10^-5 M) was added and incubation performed for 10 minutes at 37° C. then a calcium solution (10 mM CaCl2, 0.86% NaCl) 0.1 ml was added and incubation performed for 5 minutes, then 1.25 μl of calcium ionophore (20 μm, A-23187) was added and the reaction started. Five minutes after the addition, 250 μl of methanol was added to stop the reaction. After the reaction was stopped, the result was centrifuged for 20 minutes (4° C., 3000 rpm), then the amount of leukotriene B4 in the supernatant was measured by the EIA method (Cayman Co. kit).
As the test compound, the same compounds as in Test Example 1 were used for the test.

Thromboxane synthase = molecular target: T2, Thromboxane synthase (Homo sapiens, UniProt P24557); test: Thromboxane synthase inhibitory activity (thromboxane B2 production, human platelet microsomes); type: biochemical; settings: prostaglandin H2 added, pH 7.5, read-out: TxSI IC50 (inhibition of thromboxane B2 production)
T2 construct: Human platelet microsomes were used; from tissue; host or cells: human platelet microsomes
T2 sequence (P24557 1-533): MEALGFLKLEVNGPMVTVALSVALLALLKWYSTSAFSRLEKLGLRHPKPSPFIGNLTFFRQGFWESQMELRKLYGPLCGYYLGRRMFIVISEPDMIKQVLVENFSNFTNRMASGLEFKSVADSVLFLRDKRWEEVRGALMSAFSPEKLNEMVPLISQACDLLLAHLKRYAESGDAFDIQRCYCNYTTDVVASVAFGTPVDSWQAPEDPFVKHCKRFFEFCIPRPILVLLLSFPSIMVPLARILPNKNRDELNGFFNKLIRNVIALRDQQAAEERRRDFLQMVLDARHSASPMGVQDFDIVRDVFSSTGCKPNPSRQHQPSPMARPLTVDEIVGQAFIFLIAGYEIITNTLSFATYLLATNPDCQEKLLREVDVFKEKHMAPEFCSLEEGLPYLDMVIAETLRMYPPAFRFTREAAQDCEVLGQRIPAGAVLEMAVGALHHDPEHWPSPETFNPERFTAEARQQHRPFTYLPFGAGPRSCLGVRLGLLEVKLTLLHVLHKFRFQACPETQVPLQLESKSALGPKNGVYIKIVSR
Experimental: (Test of Thromboxane synthase Inhibitory Activity)
Human platelet microsomes were used and a test performed using as an indicator the amount of production of the thromboxane A2 stable metabolite thromboxane B2. A buffer solution (20 mM tris-HCl buffer solution, 1 mM EDTA, pH 7.5) containing human platelet microsomes (50 μg protein/ ml) and the test compound (final concentration of 10^-6 M) was stirred, then incubated at 0° C. for 30 minutes, followed by adding prostaglandin H2 (100 ng/2 μl). This was made acidic to stop the reaction, then neutralized with 1M Tris-base, then centrifuged at 3000 rpm for 20 minutes. The amount of the thromboxane B2 in the supernatant was measured by the EIA method (Cayman Co. kit).
As the test compound, the compounds 1, 6, 10, 11, 18 to 21, 24 to 27, 35, 40, 41, 44, and 45 were used for the test.

Crj-ICR male mice = test: Acute toxicity test; type: in vivo, mouse; settings: intraperitoneal, dosages of up to 1000 mg/kg, 7 days observation
Experimental: Crj-ICR male mice (7 weeks old, five mice to a group) were used. The test compound (Compounds 9, 26, and 33) was suspended in 0.5% sodium carboxymethylcellulose and administered intraperitoneally at a ratio of 10 ml/kg. The survival of the animals was observed up until 7 days after administration.

[2] = rat polymorphonuclear leukocytes, calcium ionophore A-23187, 37° C., read-out: LTBI IC50 (inhibition of leukotriene B4 production)

Row | Structure (SMILES) | ED50 [1] [mg/kg] | IC50 (Lipoxygenase; [2]) [nM] | IC50 (Thromboxane synthase) [nM] | IC50 (Lipoxygenase) [nM] | Deaths (acute toxicity) (Crj-ICR male mice)
1 | O=C(O)/C=C/c1ccc(Cn2ccnc2)cc1 [OKY-046, reference compound] | 260 | – | – | – | –
2 | Cc1c(-c2cccnc2)c2ccccc2n1CCN(O)C(N)=O [Compound 20, N-Hydroxy-N-[2-[1-[2-methyl-3-(3-pyridyl)indolyl]]ethyl]urea] | – | 1500 | 5 | – | –
3 | NC(=O)N(O)CCCCCCCCCCn1c(-c2cccnc2)cc2ccccc21 [Compound 11, N-hydroxy-N-[10-[1-[2-(3-pyridyl)indolyl]]decyl]urea] | – | 9 | 0.8 | – | –
4 | NC(=O)N(O)Cc1cn(Cc2cccnc2)c2ccccc12 [Compound 26, N-Hydroxy-N-[3-[1-(3-pyridylmethyl)indolyl]methyl]urea] | 75 | – | 700 | 3000 | –
5 | CC(c1cc2ccccc2s1)N(O)C(N)=O (stereo not shown) [Compound A-64077, reference compound] | 300 | – | – | – | –
6 | Cn1cc(-c2cccnc2)c2cc(CN(O)C(N)=O)ccc21 [Compound 40, N-Hydroxy-N-[5-[1-methyl-3-(3-pyridyl)indolyl]methyl]urea] | – | 700 | 30 | – | –
7 | NC(=O)N(O)CCCCCCn1c(-c2cccnc2)c(Cl)c2cc(Cl)ccc21 [Compound 9, N-[6-[1-[3,5-dichloro-2-(3-pyridyl)indolyl]]hexyl]-N-hydroxyurea] | – | – | – | – | no deaths
8 | Cc1c(-c2cccnc2)n(CCCCCCN(O)C(N)=O)c2ccc(Cl)cc12 [Compound 10, N-[6-[1-[5-Chloro-3-methyl-2-(3-pyridyl)indolyl]]hexyl]-N-hydroxyurea] | – | 30 | 0.7 | – | –
9 | CC(c1ccc2c(c1)c(-c1cccnc1)cn2C)N(O)C(N)=O (stereo not shown) [Compound 45, N-Hydroxy-N-[1-[5-[1-methyl-3-(3-pyridyl)indolyl]]ethyl]urea] | – | 2500 | 60 | – | –
10 | NC(=O)N(O)CCCCCCCCCCCCn1c(-c2cccnc2)cc2ccccc21 [Compound 1, N-Hydroxy-N-[12-[1-[2-(3-pyridyl)indolyl]]dodecyl]urea] | – | 6 | 3 | – | –
11 | NC(=O)N(O)Cc1ccc(Cc2cn(Cc3cccnc3)c3ccccc23)cc1 [Compound 27, N-Hydroxy-N-[4-[3-[1-(3-pyridylmethyl)indolyl]]methylbenzyl]urea] | – | 100 | 70 | – | –
12 | NC(=O)N(O)Cc1ccc2c(ccn2Cc2cccnc2)c1 [Compound 33, N-hydroxy-N-[5-[1-(3-pyridylmethyl)indolyl]methyl]urea] | 30 | – | – | – | –
13 | Cn1c(-c2cccnc2)c(C=CCN(O)C(N)=O)c2ccccc21 [Compound 24, N-Hydroxy-N-[3-[3-[1-methyl-2-(3-pyridyl)indolyl]]-2-propenyl]urea] | – | 4000 | 40 | – | –
14 | NC(=O)N(O)CCn1cc(-c2cccnc2)c2ccccc21 [Compound 19, N-Hydroxy-N-[2-[1-[3-(3-pyridyl)indolyl]]ethyl]urea] | 30 | 300 | 15 | – | –
15 | NC(=O)N(O)CCCCCCn1cc(Cc2cccnc2)c2ccccc21 [Compound 18, N-Hydroxy-N-[6-[1-[3-(3-pyridylmethyl)indolyl]]hexyl]urea] | – | 100 | 300 | – | –
16 | NC(=O)N(O)CCCCCCn1cc(-c2cccnc2)c2ccccc21 [Compound 21, N-Hydroxy-N-[6-[1-[3-(3-pyridyl)indolyl]]hexyl]urea] | – | 40 | 15 | – | –
17 | Cc1c(-c2cccnc2)n(C)c2ccc(C(C)N(O)C(N)=O)cc12 (stereo not shown) [Compound 41, N-[1-[5-[1,3-Dimethyl-2-(3-pyridyl)indolyl]]ethyl]-N-hydroxyurea] | – | 2000 | 70 | – | –
18 | Cc1c(-c2cccnc2)n(C)c2ccc(C#CC(C)N(O)C(N)=O)cc12 (stereo not shown) [Compound 44, N-[2-[4-[5-[1,3-dimethyl-2-(3-pyridyl)indolyl]]-3-butynyl]]-N-hydroxyurea] | – | 600 | 30 | – | –
19 | NC(=O)N(O)CCCCCCCCn1c(-c2cccnc2)cc2ccccc21 [Compound 6, N-Hydroxy-N-[8-[1-[2-(3-pyridyl)indolyl]]octyl]urea] | – | 10 | 0.7 | – | –
20 | Cc1c(-c2cccnc2)n(C)c2ccc(CN(O)C(N)=O)cc12 [Compound 35, N-[5-[1,3-Dimethyl-2-(3-pyridyl)indolyl]methyl]-N-hydroxyurea] | – | 2000 | 40 | – | –
21 | NC(=O)N(O)CC=Cc1cn(Cc2cccnc2)c2ccccc12 [Compound 25, N-hydroxy-N-[3-[3-[1-(3-pyridylmethyl)indolyl]]-2-propenyl]urea] | – | 200 | 150 | – | –
